Data published in patent US11414424B2, “Cardiac sarcomere inhibitors” (Cytokinetics, Inc., priority 2018, dated 2022).

These compounds were tested on bovine cardiac myofibrils (assay: Myofibril assay: PK/LDH-coupled steady-state ATPase activity of skinned bovine cardiac myofibrils). Conditions: Ca2+ activating to 75% of maximal rate.
Assay type: biochemical
Description: To evaluate the effect of compounds on the ATPase activity of full-length cardiac myosin in the context of the native sarcomere, skinned myofibril assays were performed. Bovine cardiac myofibrils were obtained by homogenizing bovine cardiac left ventricular tissue in the presence of a detergent such as triton X-100. Such treatment removes membranes and a majority of the soluble cytoplasmic proteins but leaves intact the cardiac sarcomeric acto-myosin apparatus. Myofibril preparations retain the ability to hydrolyze ATP in a Ca^2+ regulated manner. ATPase activities of such myofibril preparations in the presence and absence of compounds were assayed at Ca^2+ concentrations activating to a defined fraction of the maximal rate (i.e., […], 75%). Small molecule agents were assessed for their ability to inhibit the steady-state ATPase activity of bovine cardiac myofibrils using pyruvate kinase and lactate dehydrogenase (PK/LDH)-coupled enzyme system. This assay regenerates myosin-produced ADP into ATP by oxidizing NADH, producing an absorbance change at 340 nm. Prior to testing small molecule agents, the bovine cardiac myofibrils were assessed for their calcium responsiveness and the calcium concentration that achieves either a 50% (pCa50) or 75% (pCa75) activation of the myofibril system was chosen as the final condition for assessing the inhibitory activity of the small molecule agents. All enzymatic activity was measured in a buffered solution containing 12 mM PIPES (piperazine-N,N′-bis(2-ethanesulfonic acid), 2 mM magnesium chloride at pH 6.8 (PM 12 buffer). Final assay conditions were 1 mg/mL of bovine cardiac myofibrils, 4 U/mL pyruvate kinase, 6 U/mL lactate dehydrogenase, 50 μM ATP, 0.1 mg/mL BSA (bovine serum albumin), 10 ppm antifoam, 1 mM DTT, 0.5 mM NADH, 1.5 mM PEP, 0.6 mM EGTA, and an amount of CaCl2 sufficient to achieve either 50% or 75% activation of the myofibril ATPase activity. Results for compounds tested are provided in Table A. Compounds tested were prepared in accordance with the synthetic procedures described herein.

Point of comparison: `Cc1ccc(N2CC3(C2)C(=O)N(C(C)C)CC(=O)N3Cc2ccc(Cl)cc2)cn1` [Compound 14, 5-(4-chlorobenzyl)-8-isopropyl-2-(6-methyl-pyridin-3-yl)-2,5,8-triazaspiro[3.5]nonane-6,9-dione], “CDMF75 IC15” value 6.0 µM. Against it:
- N#Cc1ccc(N2CC(=O)N(Cc3ccc(Cl)cc3)C3(CCN(C(=O)C4CC4)C3)C2=O)c(F)c1 (stereo in doubt) [Compound 213, (S)-4-(6-(4-chlorobenzyl)-2-(cyclopropanecarbonyl)-7,10-dioxo-2,6,9-triazaspiro[4.5]decan-9-yl)-3-fluorobenzonitrile] — 15-fold lower, 0.4 µM
- N#Cc1ccc(N2CC(=O)N(Cc3ccc(C(F)(F)F)cc3)C3(CCN(C=O)C3)C2=O)c(F)c1 (stereo in doubt) [Compound 222, (S)-3-fluoro-4-(2-formyl-7,10-dioxo-6-(4-(trifluoromethyl)benzyl)-2,6,9-triazaspiro[4.5]decan-9-yl)benzonitrile] — 8.6-fold lower, 0.7 µM
- CC(C)N1CC(=O)N(Cc2ccc(C(F)(F)F)cc2)C2(CCN(C(=O)NC3CCC3)C2)C1=O (centres unmarked) [Compound 1, N-cyclobutyl-9-isopropyl-7,10-dioxo-6-(4-(trifluoromethyl)benzyl)-2,6,9-triazaspiro[4.5]-decane-2-carboxamide] — 1.6-fold higher, 9.5 µM
- CC(C)N1CC(=O)N(Cc2ccc(Cl)cc2)C2(CN(c3ccccc3)C2)C1=O [Compound 2, 5-(4-chlorobenzyl)-8-isopropyl-2-phenyl-2,5,8-triazaspiro[3.5]nonane-6,9-dione] — 3.3-fold lower, 1.8 µM
- CC(C)N1CC(=O)N(Cc2ccc(Cl)cc2)C2(CN(c3ccc(F)cc3)C2)C1=O [Compound 3, 5-(4-chlorobenzyl)-2-(4-fluorophenyl)-8-isopropyl-2,5,8-triazaspiro[3.5]-nonane-6,9-dione] — 3.5-fold lower, 1.7 µM
- CC(C)N1CC(=O)N(Cc2ccc(Cl)cc2)C2(CN(c3ccc(Cl)cc3)C2)C1=O [Compound 4, 5-(4-chlorobenzyl)-2-(4-chlorophenyl)-8-isopropyl-2,5,8-triazaspiro[3.5]-nonane-6,9-dione] — 2.4-fold lower, 2.5 µM
- CC(C)N1CC(=O)N(Cc2ccc(Cl)cc2)C2(CN(c3cccc(Cl)c3)C2)C1=O [Compound 5, 5-(4-chlorobenzyl)-2-(3-chlorophenyl)-8-isopropyl-2,5,8-triazaspiro[3.5]-nonane-6,9-dione] — 3.2-fold lower, 1.9 µM
- CC(C)N1CC(=O)N(Cc2ccc(Cl)cc2)C2(CN(c3ccccn3)C2)C1=O [Compound 6, 5-(4-chlorobenzyl)-8-isopropyl-2-(pyridin-2-yl)-2,5,8-triazaspiro[3.5]-nonane-6,9-dione] — 6.7-fold lower, 0.9 µM
- CC(C)N1CC(=O)N(Cc2ccc(Cl)cc2)C2(CN(c3cccnc3)C2)C1=O [Compound 7, 5-(4-chlorobenzyl)-8-isopropyl-2-(pyridin-3-yl)-2,5,8-triazaspiro[3.5]-nonane-6,9-dione] — 3.2-fold lower, 1.9 µM
- CC(C)N1CC(=O)N(Cc2ccc(Cl)cc2)C2(CN(c3ccncc3)C2)C1=O [Compound 8, 5-(4-chlorobenzyl)-8-isopropyl-2-(pyridin-4-yl)-2,5,8-triazaspiro[3.5]-nonane-6,9-dione] — 1.8-fold lower, 3.3 µM
- Cc1ccc(N2CC3(C2)C(=O)N(C(C)C)CC(=O)N3Cc2ccc(Cl)cc2)nc1 [Compound 9, 5-(4-chlorobenzyl)-8-isopropyl-2-(5-methyl-pyridin-2-yl)-2,5,8-triazaspiro[3.5]nonane-6,9-dione] — 2.5-fold lower, 2.4 µM
- Cc1cc(N2CC3(C2)C(=O)N(C(C)C)CC(=O)N3Cc2ccc(Cl)cc2)ccn1 [Compound 10, 5-(4-chlorobenzyl)-8-isopropyl-2-(2-methyl-pyridin-4-yl)-2,5,8-triazaspiro[3.5]nonane-6,9-dione] — within 1.5-fold, 5.2 µM
- CC(C)N1CC(=O)N(Cc2ccc(Cl)cc2)C2(CN(c3ncccn3)C2)C1=O [Compound 11, 5-(4-chlorobenzyl)-8-isopropyl-2-(pyrimidin-2-yl)-2,5,8-triazaspiro-[3.5]nonane-6,9-dione] — 2.9-fold higher, 17.4 µM
- CC(C)N1CC(=O)N(Cc2ccc(Cl)cc2)C2(CN(c3cnccn3)C2)C1=O [Compound 12, 5-(4-chlorobenzyl)-8-isopropyl-2-(pyrazin-2-yl)-2,5,8-triazaspiro-[3.5]nonane-6,9-dione] — within 1.5-fold, 6.6 µM
- Cc1ncccc1N1CC2(C1)C(=O)N(C(C)C)CC(=O)N2Cc1ccc(Cl)cc1 [Compound 13, 5-(4-chlorobenzyl)-8-isopropyl-2-(2-methyl-pyridin-3-yl)-2,5,8-triazaspiro[3.5]nonane-6,9-dione] — within 1.5-fold, 7.1 µM
- Cc1ccnc(N2CC3(C2)C(=O)N(C(C)C)CC(=O)N3Cc2ccc(Cl)cc2)c1 [Compound 15, 5-(4-chlorobenzyl)-8-isopropyl-2-(4-methyl-pyridin-2-yl)-2,5,8-triazaspiro[3.5]nonane-6,9-dione] — 2.2-fold lower, 2.7 µM
- Cc1cncc(N2CC3(C2)C(=O)N(C(C)C)CC(=O)N3Cc2ccc(Cl)cc2)c1 [Compound 16, 5-(4-chlorobenzyl)-8-isopropyl-2-(5-methyl-pyridin-3-yl)-2,5,8-triazaspiro[3.5]nonane-6,9-dione] — 2.2-fold lower, 2.7 µM
- CC(C)N1CC(=O)N(Cc2ccc(Cl)cc2)C2(CN(c3ccc(F)cn3)C2)C1=O [Compound 17, 5-(4-chlorobenzyl)-2-(5-fluoropyridin-2-yl)-8-isopropyl-2,5,8-triazaspiro[3.5]nonane-6,9-dione] — 3.5-fold lower, 1.7 µM
- CC(C)N1CC(=O)N(Cc2ccc(Cl)cc2)C2(CN(c3cncc(F)c3)C2)C1=O [Compound 18, 5-(4-chlorobenzyl)-2-(5-fluoropyridin-3-yl)-8-isopropyl-2,5,8-triazaspiro[3.5]nonane-6,9-dione] — 1.9-fold lower, 3.1 µM
- CC(C)N1CC(=O)N(Cc2ccc(Cl)cc2)C2(CN(c3ccncn3)C2)C1=O [Compound 19, 5-(4-chlorobenzyl)-8-isopropyl-2-(pyrimidin-4-yl)-2,5,8-triazaspiro-[3.5]nonane-6,9-dione] — within 1.5-fold, 5.7 µM
- CC(C)N1C(=O)C2(CN(c3ccc(F)cc3)C2)N(Cc2ccc(Cl)cc2)C(=O)C1C (centres unmarked) [Compound 20, 5-(4-chlorobenzyl)-2-(4-fluorophenyl)-8-isopropyl-7-methyl-2,5,8-triazaspiro[3.5]nonane-6,9-dione] — within 1.5-fold, 7.5 µM
- CC(C)N1CC(=O)N(Cc2ccc(Cl)cc2)C2(CN(c3cnn(C)c3)C2)C1=O [Compound 21, 5-(4-chlorobenzyl)-8-isopropyl-2-(1-methyl-1H-pyrazol-4-yl)-2,5,8-triazaspiro[3.5]nonane-6,9-dione] — 2.3-fold lower, 2.6 µM
- CC(C)N1CC(=O)N(Cc2ccc(Cl)cc2)C2(CN(c3nccs3)C2)C1=O [Compound 22, 5-(4-chlorobenzyl)-8-isopropyl-2-(thiazol-2-yl)-2,5,8-triazaspiro[3.5]-nonane-6,9-dione] — within 1.5-fold, 4.1 µM
- CC(C)N1CC(=O)N(Cc2ccc(Cl)cc2)C2(CN(c3cccnn3)C2)C1=O [Compound 23, 5-(4-chlorobenzyl)-8-isopropyl-2-(pyridazin-3-yl)-2,5,8-triazaspiro[3.5]-nonane-6,9-dione] — 2.7-fold lower, 2.2 µM
- CC(C)N1CC(=O)N(Cc2ccc(Cl)cc2)C2(CN(c3ccnnc3)C2)C1=O [Compound 24, 5-(4-chlorobenzyl)-8-isopropyl-2-(pyridazin-4-yl)-2,5,8-triazaspiro[3.5]-nonane-6,9-dione] — within 1.5-fold, 5.7 µM
- CC(C)N1CC(=O)N(Cc2ccc(Cl)cc2)C2(CN(c3cncnc3)C2)C1=O [Compound 25, 5-(4-chlorobenzyl)-8-isopropyl-2-(pyrimidin-5-yl)-2,5,8-triazaspiro-[3.5]nonane-6,9-dione] — within 1.5-fold, 8.8 µM
- Cc1cc(N2CC3(C2)C(=O)N(C(C)C)CC(=O)N3Cc2ccc(Cl)cc2)n[nH]1 [Compound 26, 5-(4-chlorobenzyl)-8-isopropyl-2-(5-methyl-1H-pyrazol-3-yl)-2,5,8-triazaspiro[3.5]nonane-6,9-dione] — 2-fold lower, 3.0 µM
- CC(C)N1CC(=O)N(Cc2ccc(Cl)cc2)C2(CN(c3ccnc(C#N)c3)C2)C1=O [Compound 27, 4-(5-(4-chlorobenzyl)-8-isopropyl-6,9-dioxo-2,5,8-triazaspiro[3.5]nonan-2-yl)picolinonitrile] — within 1.5-fold, 8.6 µM
- CC(C)N1CC(=O)N(Cc2ccc(Cl)cc2)C2(CN(c3ccnc(O)c3)C2)C1=O [Compound 28, 5-(4-chlorobenzyl)-2-(2-hydroxypyridin-4-yl)-8-isopropyl-2,5,8-triazaspiro[3.5]nonane-6,9-dione] — 1.9-fold lower, 3.1 µM
- CC(C)N1CC(=O)N(Cc2ccc(Cl)cc2)C2(CN(c3ccnc(C(F)F)c3)C2)C1=O [Compound 29, 5-(4-chlorobenzyl)-2-(2-(difluoromethyl)pyridin-4-yl)-8-isopropyl-2,5,8-triazaspiro[3.5]nonane-6,9-dione] — within 1.5-fold, 5.6 µM
- Cc1ccc(CN2C(=O)CN(C(C)C)C(=O)C23CN(c2ccnc(C)c2)C3)cc1 [Compound 30, 8-isopropyl-5-(4-methylbenzyl)-2-(2-methylpyridin-4-yl)-2,5,8-triazaspiro[3.5]-nonane-6,9-dione] — 3.5-fold higher, 21.1 µM
